The results in this text go back to ChEMBL document CHEMBL4364304, “Discovery, synthesis, and in vitro evaluation of a novel bioactive peptide for ACE and DPP-IV inhibitory activity” (Eur J Med Chem, 2019).

Residues, ends and D or L forms follow the SMILES beside them.

The target in experiment [1] is T1, Angiotensin-converting enzyme (Sus scrofa) (UniProt F1RRW5).
T1 sequence (whole entry): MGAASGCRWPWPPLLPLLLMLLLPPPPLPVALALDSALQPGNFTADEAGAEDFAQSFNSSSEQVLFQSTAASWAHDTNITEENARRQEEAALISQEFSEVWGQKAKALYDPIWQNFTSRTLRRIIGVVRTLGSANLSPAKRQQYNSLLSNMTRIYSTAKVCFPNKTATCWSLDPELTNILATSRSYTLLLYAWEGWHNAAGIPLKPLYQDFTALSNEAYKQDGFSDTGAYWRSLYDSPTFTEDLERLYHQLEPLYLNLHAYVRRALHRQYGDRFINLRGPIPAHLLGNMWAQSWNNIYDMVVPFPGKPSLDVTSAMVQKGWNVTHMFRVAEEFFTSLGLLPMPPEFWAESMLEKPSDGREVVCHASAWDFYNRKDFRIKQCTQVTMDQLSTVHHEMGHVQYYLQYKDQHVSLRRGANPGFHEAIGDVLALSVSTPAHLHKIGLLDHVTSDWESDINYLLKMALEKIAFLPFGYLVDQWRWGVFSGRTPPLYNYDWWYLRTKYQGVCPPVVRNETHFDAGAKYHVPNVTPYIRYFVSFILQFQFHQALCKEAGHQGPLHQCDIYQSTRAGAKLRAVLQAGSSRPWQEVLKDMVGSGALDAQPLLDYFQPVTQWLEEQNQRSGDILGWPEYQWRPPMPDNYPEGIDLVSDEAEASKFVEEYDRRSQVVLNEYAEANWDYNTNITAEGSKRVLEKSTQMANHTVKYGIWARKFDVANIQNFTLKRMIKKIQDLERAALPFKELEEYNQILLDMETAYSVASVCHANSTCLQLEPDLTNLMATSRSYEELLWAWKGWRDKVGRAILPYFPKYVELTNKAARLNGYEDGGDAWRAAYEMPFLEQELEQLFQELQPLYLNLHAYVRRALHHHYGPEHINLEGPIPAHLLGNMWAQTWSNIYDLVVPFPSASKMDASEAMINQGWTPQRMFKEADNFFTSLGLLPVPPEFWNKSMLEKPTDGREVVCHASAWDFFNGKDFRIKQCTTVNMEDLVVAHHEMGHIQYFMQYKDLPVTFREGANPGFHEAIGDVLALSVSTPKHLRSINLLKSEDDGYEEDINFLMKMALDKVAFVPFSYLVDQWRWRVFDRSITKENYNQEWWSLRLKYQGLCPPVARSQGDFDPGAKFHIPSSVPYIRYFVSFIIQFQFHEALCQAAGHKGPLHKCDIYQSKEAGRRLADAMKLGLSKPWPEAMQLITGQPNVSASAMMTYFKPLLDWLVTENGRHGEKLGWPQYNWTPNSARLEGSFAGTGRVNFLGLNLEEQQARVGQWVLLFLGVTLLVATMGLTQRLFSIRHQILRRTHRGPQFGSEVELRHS
Kind of experiment: (§1) Inhibition of porcine angiotensin converting enzyme assessed as release of hippuric acid using hippuryl-histidyl-leucine as substrate measured after 30 mins by spectrophotometry analysis.

The target in experiment [2] is T2, Angiotensin-converting enzyme (Sus scrofa, UniProt F1RRW5).
T2 sequence (F1RRW5 whole entry): T1 sequence (whole entry)
Described as §1.

For another experiment, the target named is Dipeptidyl peptidase 4 (Homo sapiens, UniProt P27487). Kind of experiment: Inhibition of recombinant human DPP4 using H-Gly-Pro conjugated amino methyl coumarin as substrate by fluorometric assay.
Chain of Dipeptidyl peptidase 4 (P27487 whole entry): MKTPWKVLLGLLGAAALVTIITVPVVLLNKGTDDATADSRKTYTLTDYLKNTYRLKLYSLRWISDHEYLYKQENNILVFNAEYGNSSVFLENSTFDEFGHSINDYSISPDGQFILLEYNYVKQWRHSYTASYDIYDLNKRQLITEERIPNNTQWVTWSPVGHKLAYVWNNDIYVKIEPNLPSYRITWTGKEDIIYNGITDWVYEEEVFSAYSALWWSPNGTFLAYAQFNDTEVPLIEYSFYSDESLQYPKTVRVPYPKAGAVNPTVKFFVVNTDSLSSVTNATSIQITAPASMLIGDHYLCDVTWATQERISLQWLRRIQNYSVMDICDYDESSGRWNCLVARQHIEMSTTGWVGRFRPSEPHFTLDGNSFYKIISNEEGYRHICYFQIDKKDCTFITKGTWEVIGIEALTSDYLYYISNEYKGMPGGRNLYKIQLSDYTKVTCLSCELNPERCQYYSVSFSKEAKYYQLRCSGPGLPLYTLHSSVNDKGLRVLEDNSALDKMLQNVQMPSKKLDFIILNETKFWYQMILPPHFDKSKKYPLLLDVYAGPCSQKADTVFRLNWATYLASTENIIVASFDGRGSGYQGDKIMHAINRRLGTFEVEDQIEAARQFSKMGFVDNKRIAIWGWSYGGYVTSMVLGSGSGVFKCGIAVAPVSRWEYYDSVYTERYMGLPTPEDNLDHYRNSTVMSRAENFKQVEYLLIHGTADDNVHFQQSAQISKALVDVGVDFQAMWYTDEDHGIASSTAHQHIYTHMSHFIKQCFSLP

Usually IC50 stands for the concentration needed to halve the response being measured. Consider `CC[C@H](C)[C@H](NC(=O)[C@H](CC(C)C)NC(=O)[C@@H]1CCCN1C(=O)[C@H](CC(C)C)NC(=O)[C@@H]1CCCN1C(=O)[C@@H](NC(=O)CN)[C@@H](C)CC)C(=O)O` (H-GIPLPLI-OH), for which the inhibition entry in experiment [1] was “Dose-dependent effect”. Moreover, the values for the IC50 (in experiment [2]; at Dipeptidyl peptidase 4) were 74.3 µM and 3830 µM, respectively.

`CC[C@H](C)[C@H](N)C(=O)N[C@@H](CCC(N)=O)C(=O)N[C@@H](CCCCN)C(=O)N[C@H](C(=O)N[C@@H](C)C(=O)NCC(=O)N[C@H](C(=O)N[C@@H](Cc1c[nH]c2ccccc12)C(=O)O)[C@@H](C)O)C(C)C` (H-IQKVAGTW-OH): the IC50 in experiment [2] came out at 300 µM.
